Test results reported in ChEMBL document CHEMBL1140455, “On the search of new I2-IBS aliphatic ligands: bis-guanidino carbonyl derivatives” (Bioorg Med Chem Lett, 2007).

Assay: Displacement of [3H]2-BFI from I2-IBS in human frontal cortex membranes
Format: cell membranes, Membrane

| Structure (SMILES) | Log Ki |
| --- | --- |
| N=C(N)NC(=O)CCCCCCCCC(=O)NC(=N)N | -6.11 |
| N=C(N)NC(=O)CCCCCCCCCC(=O)NC(=N)N | -5.2 |
| N=C(N)NC(=O)CCCCCCCCCCCCCCC(=O)NC(=N)N | -5.7 |
| N=C(N)NC(=O)CCCCCCCCCCC(=O)NC(=N)N | -5.69 |
| c1ccc2c(c1)OCC(C1=NCCN1)O2 (stereo not drawn) [IDAZOXAN] | -7.43 |

Continued, values first:

| Log Ki | Structure (SMILES) |
| --- | --- |
| -5.06 | N=C(N)NC(=O)CCCCCCCCCCCC(=O)NC(=N)N |
| -5.91 | N=C(N)NC(=O)CCCCCCCCCCCCC(=O)NC(=N)N |
| -7.48 | N=C(N)NCCCCCCCCCCCCNC(=N)N |
